Structures are written as SMILES.

What all share (format): cell-based
One assay relates to recombinant IgE. The experiment in a line: Degradation of super-stoichiometric levels of target in HepG2 cells (Example 13, Table 31). Particulars: 1 nM conjugate and 25 nM IgE for three days, (A-B)/C IgE depleted relative to conjugate, average of two replicate wells. In outline: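 HepG2 cells in EMEM/10% FBS were incubated with 1 nM conjugate plus 25 nM recombinant IgE for 72 h. IgE in medium at start and end quantified by MSD/ELISA-type assay; value is molar equivalents IgE depleted per conjugate, (initial − day-3 IgE)/conjugate concentration, mean of two wells.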

Assay [1] has as its system LysoLight-labelled human IgE. In words: Lysosomal degradation of LysoLight-labelled IgE in HepG2 cells, live cell imaging (Example 7). Particulars: equimolar conjugate:LysoLight IgE, area under the curve of deep red fluorescence over three days, normalized to unconjugated parent protein. Summed up: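 Conjugate precomplexed 30 min at room temperature with equimolar LysoLight-labelled human IgE, added to Fc-receptor-blocked HepG2 cells at final 100–1.23 nM. Red fluorescence, released on lysosomal cathepsin cleavage, imaged hourly for 72 h starting 1 h post-addition; area under the fluorescence–time curve taken as total degradation.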

In assay [2] the test system is Alexa Fluor647 labelled human IgE. The experiment in a line: Uptake assay: internalization of Alexa Fluor 647 labelled IgE in wild type HepG2 cells (Example 6). Particulars: equimolar conjugate and AF647 IgE, 2 hours, median cellular AF647 intensity by flow cytometry, normalized to unconjugated parent protein. Summed up: (§1)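 HepG2 cells (wild type or ASGPR1/2 KO) pre-blocked with Fc receptor blocker, then exposed 2 h to conjugate precomplexed equimolar with AF647-labelled human IgE (30 min, room temperature) at 300 nM to 1.23 nM final. Median cellular AF647 by flow cytometry, normalized to unconjugated parent protein.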
A general note: Flow cytometry measures light scatter and fluorescence of single cells or particles in a stream.

The next assay has as its system human IgE. The experiment in a line: Degradation of initial and subsequent dose of target in HepG2 cells (Example 12, Table 30). The settings on record: normalized to unconjugated; for Normalized Fluorescence Post Wash Median Green: after wash, probe-conjugated IgE added for 4 hours, subsequent dose of target; for Normalized Fluorescence Precomplex Median Deep Red: precomplexed equimolar conjugate:IgE (cathepsin-cleavable quenched fluorescent probe) added for 2 hours, initial dose of target. Summed up:
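HepG2 cells exposed 2 h to conjugate precomplexed (30 min, 37 °C, equimolar) with 647-quenched-probe human IgE, acid/ice washed, then given 488-probe IgE without conjugate for 4 h. Median 647 (initial) and 488 (recycled) fluorescence by flow cytometry, normalised to unconjugated parent; mean of two wells.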

Another assay has as its system HepG2 cells. The experiment in a line: Externalization of conjugates from a cell following internalization (cycling), high-throughput format (Example 11). The settings on record: 50 nM conjugate 1 hour, stringent washes, Alexa Fluor 647-labelled a-human IgG 1 hour, FACS, normalized to unconjugated parent protein, average of two replicate wells. In outline:
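25,000 HepG2 cells incubated with conjugate for 1 h at indicated concentrations, then chilled and washed (DPBS, pH 5.2 acetate, pH 2.5 EBSS) to strip surface conjugate. Recycled conjugate captured by 1 μg/ml AF647 anti-human IgG in 37 °C EMEM for 1 h; median AF647 by flow cytometry, mean of two wells.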

The subject of assay [3] is Alexa Fluor647 labelled human IgE. In words: Uptake assay: internalization of Alexa Fluor 647 labelled IgE in ASGPR1/2 KO HepG2 cells (Example 6). Particulars: equimolar conjugate and AF647 IgE, normalized to unconjugated parent protein. Summed up:
as §1

For the compound `COC[C@H]1OC[C@H](Nc2nc(OCCOCCOCCNC(=O)NCCCC(CCCNC(=O)NCCOCCOCCOc3cc(C(F)(F)F)nc(N[C@H]4CO[C@H](COC)[C@H](O)[C@@H]4O)n3)(CCCNC(=O)NCCOCCOCCOc3cc(C(F)(F)F)nc(N[C@H]4CO[C@H](COC)[C@H](O)[C@@H]4O)n3)NC(=O)CCOCCOCCOCCNS(=O)(=O)c3ccc(N4C(=O)C=CC4=O)cc3)cc(C(F)(F)F)n2)[C@@H](O)[C@H]1O` [Compound 2309], in the assay on recombinant IgE, the “Average Degradation (Molar equivalents)” value is listed as 4.1 Molar equivalents. Moreover, in assay [1], the “Normalized Fluorescence 3.7 nM” value was 6.7 and the “Normalized Fluorescence 100 nM” value came to 3.1. Moreover, in assay [2], the “Normalized Fluorescence 3.7 nM WT” value amounted to 38.9 and the “Normalized Fluorescence 100 nM WT” value amounted to 201.6. For the same compound, in the assay on human IgE, the “Normalized Fluorescence Post Wash Median Green” value worked out at 2.5 and the “Normalized Fluorescence Precomplex Median Deep Red” value is on record as 3.0. The “Normalized Fluorescence” value in the assay with HepG2 cells is on record as 27.1. Moreover, in assay [3], the “Normalized Fluorescence 100 nM ASGPR KO” value turned out to be 1.1.

For the compound `CC(=O)N[C@@H]1[C@@H](O)[C@@H](O)[C@@H](CO)O[C@@H]1CCCOCCOCCNC(=O)NCCOCCOCCOCCOCCOCCNC(=O)c1ccc(N2C(=O)C=CC2=O)cc1` [Compound 2319-C, N-(29-((2R,3R,4R,5R,6R)-3-acetamido-4,5-dihydroxy-6-(hydroxymethyl)tetrahydro-2H-pyran-2-yl)-19-oxo-3,6,9,12,15,23,26-heptaoxa-18,20-diazanonacosyl)-4-(2,5-dioxo-2,5-dihydro-1H-pyrrol-1-yl)benzamide], the “Average Degradation (Molar equivalents)” value with recombinant IgE was 2.1 Molar equivalents. In addition, in assay [1], the “Normalized Fluorescence 3.7 nM” value is recorded as 1.1 and the “Normalized Fluorescence 100 nM” value is recorded as 1.0. For the same compound, in assay [2], the “Normalized Fluorescence 3.7 nM WT” value is recorded as 2.3 and the “Normalized Fluorescence 100 nM WT” value stood at 16.0. Besides, in the assay with human IgE, the “Normalized Fluorescence Post Wash Median Green” value stood at 1.1 and the “Normalized Fluorescence Precomplex Median Deep Red” value worked out at 1.2. In addition, the “Normalized Fluorescence” value with HepG2 cells came out at 5.0. In addition, the “Normalized Fluorescence 100 nM ASGPR KO” value in assay [3] is listed as 1.4.

In the case of `CC(=O)N[C@@H]1[C@@H](O)[C@@H](O)[C@@H](CO)O[C@@H]1CCCOCCOCCNC(=O)NCCCC(C)(CCCNC(=O)NCCOCCOCCC[C@H]1O[C@H](CO)[C@H](O)[C@H](O)[C@H]1NC(C)=O)NC(=O)NCCOCCOCCOCCNC(=O)CBr` (stereo partly drawn) [Compound 2320], the “Average Degradation (Molar equivalents)” value in the assay on recombinant IgE was 0.5 Molar equivalents. Moreover, in assay [1], the “Normalized Fluorescence 3.7 nM” value amounted to 6.4 and the “Normalized Fluorescence 100 nM” value was determined as 2.7. For the same compound, in assay [2], the “Normalized Fluorescence 3.7 nM WT” value is 37.7 and the “Normalized Fluorescence 100 nM WT” value amounted to 224.4. In addition, in the assay with human IgE, the “Normalized Fluorescence Post Wash Median Green” value is given as 2.7 and the “Normalized Fluorescence Precomplex Median Deep Red” value is reported as 3.2. Further, the “Normalized Fluorescence” value in the assay with HepG2 cells is 24.1. Besides, the “Normalized Fluorescence 100 nM ASGPR KO” value in assay [3] came out at 1.1.

As to `CC(=O)N[C@@H]1[C@@H](O)[C@@H](O)[C@@H](CO)O[C@@H]1CCCOCCOCCNC(=O)NCCCC(CCCNC(=O)NCCOCCOCCC[C@H]1O[C@H](CO)[C@H](O)[C@H](O)[C@H]1NC(C)=O)(CCCNC(=O)NCCOCCOCCC[C@H]1O[C@H](CO)[C@H](O)[C@H](O)[C@H]1NC(C)=O)NC(=O)NCCOCCOCCOCCN(C)C(=O)c1ccc(N2C(=O)C=CC2=O)cc1` [Compound 2322], the “Average Degradation (Molar equivalents)” value with recombinant IgE was 5.2 Molar equivalents. In assay [1], the “Normalized Fluorescence 3.7 nM” value is listed as 7.8 and the “Normalized Fluorescence 100 nM” value turned out to be 3.5. For the same compound, in assay [2], the “Normalized Fluorescence 3.7 nM WT” value is listed as 68.5 and the “Normalized Fluorescence 100 nM WT” value is given as 214.4. Further, in the assay on human IgE, the “Normalized Fluorescence Post Wash Median Green” value was 3.3 and the “Normalized Fluorescence Precomplex Median Deep Red” value was 3.5. Moreover, in the assay on HepG2 cells, the “Normalized Fluorescence” value was 46.8. Also, the “Normalized Fluorescence 100 nM ASGPR KO” value in assay [3] is 1.2.

`CC(=O)N[C@@H]1[C@@H](O)[C@@H](O)[C@@H](CO)O[C@@H]1CCCOCCOCCNC(=O)NCCCC(CCCNC(=O)NCCOCCOCCC[C@H]1O[C@H](CO)[C@H](O)[C@H](O)[C@H]1NC(C)=O)(CCCNC(=O)NCCOCCOCCC[C@H]1O[C@H](CO)[C@H](O)[C@H](O)[C@H]1NC(C)=O)NC(=O)NCCOCCOCCOCCN(C)C(=O)CBr` [Compound 2316]: in the assay on recombinant IgE, the “Average Degradation (Molar equivalents)” value was 5.7 Molar equivalents. Besides, in assay [1], the “Normalized Fluorescence 3.7 nM” value turned out to be 13.4 and the “Normalized Fluorescence 100 nM” value came to 3.7. For the same compound, in assay [2], the “Normalized Fluorescence 3.7 nM WT” value is 68.4 and the “Normalized Fluorescence 100 nM WT” value turned out to be 314.3. In the assay on human IgE, the “Normalized Fluorescence Post Wash Median Green” value is given as 3.5 and the “Normalized Fluorescence Precomplex Median Deep Red” value is listed as 3.8. Further, the “Normalized Fluorescence” value with HepG2 cells worked out at 45.7. Moreover, in assay [3], the “Normalized Fluorescence 100 nM ASGPR KO” value stood at 1.1.

Consider `CC(=O)N[C@@H]1[C@@H](O)[C@@H](O)[C@@H](CO)O[C@@H]1c1cn(CCOCCOCCNC(=O)NCCCC(CCCNC(=O)NCCOCCOCCn2cc([C@H]3O[C@H](CO)[C@H](O)[C@H](O)[C@H]3NC(C)=O)nn2)(CCCNC(=O)NCCOCCOCCn2cc([C@H]3O[C@H](CO)[C@H](O)[C@H](O)[C@H]3NC(C)=O)nn2)NC(=O)CCOCCOCCOCCNS(=O)(=O)c2ccc(N3C(=O)C=CC3=O)cc2)nn1` [Compound 2329], for which the “Average Degradation (Molar equivalents)” value with recombinant IgE was 4.7 Molar equivalents. In addition, in assay [1], the “Normalized Fluorescence 3.7 nM” value was found to be 11.6 and the “Normalized Fluorescence 100 nM” value was 3.0. Further, in assay [2], the “Normalized Fluorescence 3.7 nM WT” value came out at 56.3 and the “Normalized Fluorescence 100 nM WT” value was determined as 201.8. Also, in the assay with human IgE, the “Normalized Fluorescence Post Wash Median Green” value was found to be 3.0 and the “Normalized Fluorescence Precomplex Median Deep Red” value turned out to be 3.3. For the same compound, in the assay on HepG2 cells, the “Normalized Fluorescence” value is listed as 40.3. Moreover, in assay [3], the “Normalized Fluorescence 100 nM ASGPR KO” value was 1.1.

Take `O=C(CCOCCOCCOCCNS(=O)(=O)c1ccc(N2C(=O)C=CC2=O)cc1)NC(CCCNC(=O)NCCOCCOCCOCC(F)(F)c1cncc(N[C@H]2CO[C@H](CO)[C@H](O)[C@@H]2O)n1)(CCCNC(=O)NCCOCCOCCOCC(F)(F)c1cncc(N[C@H]2CO[C@H](CO)[C@H](O)[C@@H]2O)n1)CCCNC(=O)NCCOCCOCCOCC(F)(F)c1cncc(N[C@H]2CO[C@H](CO)[C@H](O)[C@@H]2O)n1` [Compound 2327]: in the assay with recombinant IgE, the “Average Degradation (Molar equivalents)” value is on record as 9.2 Molar equivalents. In assay [1], the “Normalized Fluorescence 3.7 nM” value amounted to 24.0 and the “Normalized Fluorescence 100 nM” value is 2.7. For the same compound, in assay [2], the “Normalized Fluorescence 3.7 nM WT” value stood at 133.1 and the “Normalized Fluorescence 100 nM WT” value was 268.8. In the assay on human IgE, the “Normalized Fluorescence Post Wash Median Green” value is listed as 4.6 and the “Normalized Fluorescence Precomplex Median Deep Red” value is reported as 3.7. Also, the “Normalized Fluorescence” value in the assay with HepG2 cells is recorded as 71.2. Further, the “Normalized Fluorescence 100 nM ASGPR KO” value in assay [3] came to 1.0.

As to `CC(=O)N[C@@H]1[C@@H](O)[C@@H](O)[C@@H](CO)O[C@@H]1CCCOCCOCCNC(=O)NCCCC(CCCNC(=O)NCCOCCOCCC[C@H]1O[C@H](CO)[C@H](O)[C@H](O)[C@H]1NC(C)=O)(CCCNC(=O)NCCOCCOCCC[C@H]1O[C@H](CO)[C@H](O)[C@H](O)[C@H]1NC(C)=O)NC(=O)CBr` [Compound 2308], the “Average Degradation (Molar equivalents)” value in the assay on recombinant IgE turned out to be 2.5 Molar equivalents. Besides, in assay [1], the “Normalized Fluorescence 3.7 nM” value is 6.7 and the “Normalized Fluorescence 100 nM” value is 2.3. In assay [2], the “Normalized Fluorescence 3.7 nM WT” value is 55.1 and the “Normalized Fluorescence 100 nM WT” value is 261.4. Moreover, in the assay with human IgE, the “Normalized Fluorescence Post Wash Median Green” value was found to be 2.8 and the “Normalized Fluorescence Precomplex Median Deep Red” value was determined as 3.3. Moreover, the “Normalized Fluorescence” value in the assay with HepG2 cells was 31.6. The “Normalized Fluorescence 100 nM ASGPR KO” value in assay [3] stood at 1.1.

(Values after US20260224714A1, “CYCLING LYSOSOMAL TARGETING ANTIBODY CONJUGATES” (Lycia Therapeutics, Inc., priority 2023, published 2026).)
